US11046694B2, “Compounds and methods for treating bacterial infections” (Entasis Therapeutics, Inc., priority 2018, dated 2021)
In brackets after ≈: the same amount, converted by molar mass. Where a name gives a salt, the structure may show the parent alone.

Tests used:
[1] = tested on: A. baumannii (ARC3495); experiment: MIC against A. baumannii; conditions: Acinetobacter baumannii, read-out: A. baumannii MIC (ARC3495) (mg/L)
[2] = tested on: K. pneumoniae (ATCC700603); experiment: MIC against K. pneumoniae; conditions: Klebsiella pneumoniae, ATCC700603, read-out: K. pneumoniae MIC (ATCC700603)
[3] = molecular target: P. aeruginosa PBP3 (Pseudomonas aeruginosa, UniProt G3XD46); type: biochemical; conditions: P. aeruginosa PBP3 60 nM, BOCILLIN FL 30 nM, pH 7.0
Sequence of P. aeruginosa PBP3 (G3XD46 whole entry): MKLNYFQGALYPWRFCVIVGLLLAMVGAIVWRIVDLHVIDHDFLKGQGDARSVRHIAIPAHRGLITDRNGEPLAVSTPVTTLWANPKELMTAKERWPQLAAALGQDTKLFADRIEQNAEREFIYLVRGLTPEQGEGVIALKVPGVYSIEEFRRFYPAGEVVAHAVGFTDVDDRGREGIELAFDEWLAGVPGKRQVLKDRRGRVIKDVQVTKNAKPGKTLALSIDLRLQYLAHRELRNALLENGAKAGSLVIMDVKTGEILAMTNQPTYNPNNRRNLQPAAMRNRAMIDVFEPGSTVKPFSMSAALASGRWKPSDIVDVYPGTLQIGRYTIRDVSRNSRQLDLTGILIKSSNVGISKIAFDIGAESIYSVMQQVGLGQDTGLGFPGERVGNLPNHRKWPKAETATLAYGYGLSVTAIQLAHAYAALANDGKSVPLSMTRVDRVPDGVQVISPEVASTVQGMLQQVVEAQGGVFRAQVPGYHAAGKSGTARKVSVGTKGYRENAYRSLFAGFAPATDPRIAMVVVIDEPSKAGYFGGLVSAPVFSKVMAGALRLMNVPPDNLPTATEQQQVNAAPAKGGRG

[4] = tested on: E. coli (ATCC25922); experiment: MIC against E. coli; conditions: Escherichia coli, ATCC25922, read-out: E. coli MIC (ATCC25922) (mg/L)
[5] = molecular target: P. aeruginosa PBP1a (Pseudomonas aeruginosa, UniProt Q07806); type: biochemical; conditions: P. aeruginosa PBP1a 60 nM, BOCILLIN FL 30 nM, pH 7.0
Sequence of P. aeruginosa PBP1a (Q07806 whole entry): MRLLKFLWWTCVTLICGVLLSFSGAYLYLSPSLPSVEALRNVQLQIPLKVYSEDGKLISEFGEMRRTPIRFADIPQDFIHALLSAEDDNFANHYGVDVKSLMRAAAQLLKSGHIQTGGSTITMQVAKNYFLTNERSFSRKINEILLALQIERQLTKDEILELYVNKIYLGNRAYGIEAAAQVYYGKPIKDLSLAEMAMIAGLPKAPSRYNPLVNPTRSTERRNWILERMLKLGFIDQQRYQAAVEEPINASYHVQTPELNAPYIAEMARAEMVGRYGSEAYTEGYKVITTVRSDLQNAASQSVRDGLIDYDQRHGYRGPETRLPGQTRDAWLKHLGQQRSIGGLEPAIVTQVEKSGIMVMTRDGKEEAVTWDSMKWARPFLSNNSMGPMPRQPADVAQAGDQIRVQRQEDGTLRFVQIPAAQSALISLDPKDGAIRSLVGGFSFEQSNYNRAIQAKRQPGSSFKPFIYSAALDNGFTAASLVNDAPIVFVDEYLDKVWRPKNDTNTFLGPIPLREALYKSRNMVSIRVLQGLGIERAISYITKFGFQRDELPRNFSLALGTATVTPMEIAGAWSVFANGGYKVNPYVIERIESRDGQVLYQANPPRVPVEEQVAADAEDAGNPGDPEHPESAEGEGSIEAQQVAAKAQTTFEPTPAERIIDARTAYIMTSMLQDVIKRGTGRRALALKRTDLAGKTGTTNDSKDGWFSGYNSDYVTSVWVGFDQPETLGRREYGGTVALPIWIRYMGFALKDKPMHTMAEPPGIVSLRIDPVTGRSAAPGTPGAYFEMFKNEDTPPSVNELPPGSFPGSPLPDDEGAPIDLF

[6] = tested on: P. aeruginosa WT (PAO1); experiment: MIC, CLSI broth microdilution, P. aeruginosa; type: cell-based; conditions: Pseudomonas aeruginosa, PAO1; CLSI broth microdilution; read-out: P. aeruginosa WT (PAO1) MIC

SMILES: CN/C(=N\OC(=O)NOC)[C@@H]1c2c(cnn2C)[C@@H]2CN1C(=O)N2OS(=O)(=O)O (racemic) [Example 33]
- MIC [1]: 8 to 16 mg/L (≈ 19.1 to 38.2 µM)
- MIC [2]: > 16 µg/mL
- PBP3 acylation rate, k(on) (M^−1 · s^−1) [3]: *** (*** represents a k(on) > 10,000 M^−1 · s^−1)
- MIC [4]: 8 to 16 mg/L (≈ 19.1 to 38.2 µM)
- PBP1a acylation rate, k(on) (M^−1 · s^−1) [5]: ** (** represents a k(on) of 100 to 10,000 M^−1 · s^−1)
- MIC [6]: 8 to 16 µg/mL (≈ 19.1 to 38.2 µM)

SMILES: CN/C(=N\OC(=O)NC(C)(C)C(=O)O)[C@@H]1c2c(cnn2C)[C@@H]2CN1C(=O)N2OS(=O)(=O)O (racemic) [Example 34]
- MIC [1]: > 16 mg/L
- MIC [2]: > 16 µg/mL
- PBP3 acylation rate, k(on) (M^−1 · s^−1) [3]: *** (*** represents a k(on) > 10,000 M^−1 · s^−1)
- MIC [4]: 8 to 16 mg/L (≈ 16.8 to 33.7 µM)
- PBP1a acylation rate, k(on) (M^−1 · s^−1) [5]: ** (** represents a k(on) of 100 to 10,000 M^−1 · s^−1)
- MIC [6]: 8 to 16 µg/mL (≈ 16.8 to 33.7 µM)

SMILES: CN/C(=N\O)[C@@H]1c2c(cnn2C/C=N/OCCN)[C@@H]2CN1C(=O)N2OS(=O)(=O)O (racemic) [Example 49, 1-((E)-2-((2-aminoethoxy)imino)ethyl)-8-((Z)—N′-hydroxy-N-methylcarbamimidoyl)-6-oxo-4,8-dihydro-1H-4,7-methanopyrazolo[3,4-e][1,3]diazepin-5(6H)-yl hydrogen sulfate]
- MIC [1]: 8 to 16 mg/L
- MIC [2]: 8 to 16 µg/mL
- PBP3 acylation rate, k(on) (M^−1 · s^−1) [3]: *** (*** represents a k(on) > 10,000 M^−1 · s^−1)
- MIC [4]: 8 to 16 mg/L
- PBP1a acylation rate, k(on) (M^−1 · s^−1) [5]: * (* represents a k(on) < 100 M^−1 · s^−1)
- MIC [6]: < 8 µg/mL

SMILES: CN/C(=N\OCC(=O)NCCN)[C@@H]1c2c(cnn2C)[C@@H]2CN1C(=O)N2OS(=O)(=O)O (racemic) [Example 58, (4R,8S)-8-((Z)—N′-(2-((2-aminoethyl)amino)-2-oxoethoxy)-N-methylcarbamimidoyl)-1-methyl-6-oxo-4,8-dihydro-1H-4,7-methanopyrazolo[3,4-e][1,3]diazepin-5(6H)-yl hydrogen sulfate]
- MIC [1]: 8 to 16 mg/L
- MIC [2]: 8 to 16 µg/mL
- PBP3 acylation rate, k(on) (M^−1 · s^−1) [3]: *** (*** represents a k(on) > 10,000 M^−1 · s^−1)
- MIC [4]: 8 to 16 mg/L
- PBP1a acylation rate, k(on) (M^−1 · s^−1) [5]: * (* represents a k(on) < 100 M^−1 · s^−1)
- MIC [6]: < 8 µg/mL

SMILES: CN/C(=N\OCC(=O)NCCCCN)[C@@H]1c2c(cnn2C)[C@@H]2CN1C(=O)N2OS(=O)(=O)O (racemic) [Example 59]
- MIC [1]: 8 to 16 mg/L (≈ 16.9 to 33.7 µM)
- MIC [2]: > 16 µg/mL
- PBP3 acylation rate, k(on) (M^−1 · s^−1) [3]: *** (*** represents a k(on) > 10,000 M^−1 · s^−1)
- MIC [4]: 8 to 16 mg/L (≈ 16.9 to 33.7 µM)
- PBP1a acylation rate, k(on) (M^−1 · s^−1) [5]: ** (** represents a k(on) of 100 to 10,000 M^−1 · s^−1)
- MIC [6]: < 8 µg/mL

SMILES: CN/C(=N\OCC(=O)NCCCC[C@H](N)C(=O)O)[C@@H]1c2c(cnn2C)[C@@H]2CN1C(=O)N2OS(=O)(=O)O (racemic) [Example 60]
- MIC [1]: > 16 mg/L
- MIC [2]: > 16 µg/mL
- PBP3 acylation rate, k(on) (M^−1 · s^−1) [3]: *** (*** represents a k(on) > 10,000 M^−1 · s^−1)
- MIC [4]: < 8 mg/L
- PBP1a acylation rate, k(on) (M^−1 · s^−1) [5]: * (* represents a k(on) < 100 M^−1 · s^−1)
- MIC [6]: 8 to 16 µg/mL (≈ 15 to 30 µM)

SMILES: CN/C(=N\OCC(=O)NC1CNC1)[C@@H]1c2c(cnn2C)[C@@H]2CN1C(=O)N2OS(=O)(=O)O (racemic) [Example 61]
- MIC [1]: > 16 mg/L
- MIC [2]: > 16 µg/mL
- PBP3 acylation rate, k(on) (M^−1 · s^−1) [3]: ** (** represents a k(on) of 100 to 10,000 M^−1 · s^−1)
- MIC [4]: < 8 mg/L
- PBP1a acylation rate, k(on) (M^−1 · s^−1) [5]: * (* represents a k(on) < 100 M^−1 · s^−1)
- MIC [6]: 8 to 16 µg/mL (≈ 17.4 to 34.9 µM)

SMILES: CN/C(=N\OC(=O)NCCNC(N)=O)[C@@H]1c2c(cnn2C)[C@@H]2CN1C(=O)N2OS(=O)(=O)O [Example 42, (4R,8S)-1-methyl-8-((Z)—N-methyl-N′-(((2-ureidoethyl)carbamoyl)oxy)carbamimidoyl)-6-oxo-4,8-dihydro-1H-4,7-methanopyrazolo[3,4-e][1,3]diazepin-5(6H)-yl hydrogen sulfate]
- MIC [1]: 8 to 16 mg/L
- MIC [2]: > 16 µg/mL
- PBP3 acylation rate, k(on) (M^−1 · s^−1) [3]: *** (*** represents a k(on) > 10,000 M^−1 · s^−1)
- MIC [4]: 8 to 16 mg/L
- PBP1a acylation rate, k(on) (M^−1 · s^−1) [5]: ** (** represents a k(on) of 100 to 10,000 M^−1 · s^−1)
- MIC [6]: 8 to 16 µg/mL

SMILES: CN(C(N)=O)/C(=N\OC(=O)NCCNC(N)=O)[C@@H]1c2c(cnn2C)[C@@H]2CN1C(=O)N2OS(=O)(=O)O [Example 43, (4R,8S)-8-((Z)—N-carbamoyl-N-methyl-N′-(((2-ureidoethyl)carbamoyl)oxy)carbamimidoyl)-1-methyl-6-oxo-4,8-dihydro-1H-4,7-methanopyrazolo[3,4-e][1,3]diazepin-5(6H)-yl hydrogen sulfate]
- MIC [1]: > 16 mg/L
- MIC [2]: > 16 µg/mL
- PBP3 acylation rate, k(on) (M^−1 · s^−1) [3]: *** (*** represents a k(on) > 10,000 M^−1 · s^−1)
- MIC [4]: < 8 mg/L
- PBP1a acylation rate, k(on) (M^−1 · s^−1) [5]: ** (** represents a k(on) of 100 to 10,000 M^−1 · s^−1)
- MIC [6]: > 16 µg/mL

SMILES: CN/C(=N\OC(=O)NCCNC(C)=O)[C@@H]1c2c(cnn2C)[C@@H]2CN1C(=O)N2OS(=O)(=O)O [Example 44, (4R,8S)-8-((Z)—N′-(((2-acetamidoethyl)carbamoyl)oxy)-N-methylcarbamimidoyl)-1-methyl-6-oxo-4,8-dihydro-1H-4,7-methanopyrazolo[3,4-e][1,3]diazepin-5(6H)-yl hydrogen sulfate]
- MIC [1]: > 16 mg/L
- MIC [2]: > 16 µg/mL
- PBP3 acylation rate, k(on) (M^−1 · s^−1) [3]: *** (*** represents a k(on) > 10,000 M^−1 · s^−1)
- MIC [4]: 8 to 16 mg/L
- PBP1a acylation rate, k(on) (M^−1 · s^−1) [5]: ** (** represents a k(on) of 100 to 10,000 M^−1 · s^−1)
- MIC [6]: > 16 µg/mL

SMILES: CN/C(=N\OC(=O)NCCCCNC(=O)C(F)(F)F)[C@@H]1c2c(cnn2C)[C@@H]2CN1C(=O)N2OS(=O)(=O)O [Example 45, (4R,8S)-1-methyl-8-((Z)—N-methyl-N′-(((4-(2,2,2-trifluoroacetamido)butyl)carbamoyl)oxy)carbamimidoyl)-6-oxo-4,8-dihydro-1H-4,7-methanopyrazolo[3,4-e][1,3]diazepin-5(6H)-yl hydrogen sulfate]
- MIC [1]: > 16 mg/L
- MIC [2]: > 16 µg/mL
- PBP3 acylation rate, k(on) (M^−1 · s^−1) [3]: *** (*** represents a k(on) > 10,000 M^−1 · s^−1)
- MIC [4]: < 8 mg/L
- PBP1a acylation rate, k(on) (M^−1 · s^−1) [5]: ** (** represents a k(on) of 100 to 10,000 M^−1 · s^−1)
- MIC [6]: > 16 µg/mL

SMILES: CN/C(=N\OS(N)(=O)=O)[C@@H]1c2c(cnn2C)[C@@H]2CN1C(=O)N2OS(=O)(=O)O [Example 46, (4R,8S)-1-methyl-8-((Z)—N-methyl-N′-(sulfamoyloxy)carbamimidoyl)-6-oxo-4,8-dihydro-1H-4,7-methanopyrazolo[3,4-e][1,3]diazepin-5(6H)-yl hydrogen sulfate]
- MIC [1]: > 16 mg/L
- MIC [2]: 8 to 16 µg/mL
- PBP3 acylation rate, k(on) (M^−1 · s^−1) [3]: *** (*** represents a k(on) > 10,000 M^−1 · s^−1)
- MIC [4]: 8 to 16 mg/L
- PBP1a acylation rate, k(on) (M^−1 · s^−1) [5]: ** (** represents a k(on) of 100 to 10,000 M^−1 · s^−1)
- MIC [6]: 8 to 16 µg/mL

SMILES: CN/C(=N\O)[C@@H]1c2c(cnn2CCNC(C)=O)[C@@H]2CN1C(=O)N2OS(=O)(=O)O [Example 48, (4R,8S)-1-(2-acetamidoethyl)-8-((Z)—N′-hydroxy-N-methylcarbamimidoyl)-6-oxo-4,8-dihydro-1H-4,7-methanopyrazolo[3,4-e][1,3]diazepin-5(6H)-yl hydrogen sulfate]
- MIC [1]: > 16 mg/L
- MIC [2]: > 16 µg/mL
- PBP3 acylation rate, k(on) (M^−1 · s^−1) [3]: *** (*** represents a k(on) > 10,000 M^−1 · s^−1)
- MIC [4]: < 8 mg/L
- PBP1a acylation rate, k(on) (M^−1 · s^−1) [5]: * (* represents a k(on) < 100 M^−1 · s^−1)
- MIC [6]: 8 to 16 µg/mL

SMILES: CN/C(=N\O)[C@@H]1c2c(cnn2CC(N)=O)[C@@H]2CN1C(=O)N2OS(=O)(=O)O [Example 50, (4R,8S)-1-(2-amino-2-oxoethyl)-8-((Z)—N′-hydroxy-N-methylcarbamimidoyl)-6-oxo-4,8-dihydro-1H-4,7-methanopyrazolo[3,4-e][1,3]diazepin-5(6H)-yl sulfate]
- MIC [1]: 8 to 16 mg/L
- MIC [2]: < 8 µg/mL
- PBP3 acylation rate, k(on) (M^−1 · s^−1) [3]: *** (*** represents a k(on) > 10,000 M^−1 · s^−1)
- MIC [4]: < 8 mg/L
- PBP1a acylation rate, k(on) (M^−1 · s^−1) [5]: ** (** represents a k(on) of 100 to 10,000 M^−1 · s^−1)
- MIC [6]: < 8 µg/mL
